Each compound was assayed on HCV replicon in cell line ET (luc-ubi-neo/ET), Huh7 human hepatoma (assay: HCV subgenomic replicon assay, luciferase end point). Details: HCV subgenomic replicon, cell line ET (luc-ubi-neo/ET) Huh7, luciferase end point; read-out: Antiviral activity EC50.
Assay type: cell-based

| Compound | EC50 |
| --- | --- |
| CC=CCC(C)C(O)C1C(=O)NC(CC)C(=O)N(C)C(COCCN(CC)CC)C(=O)N(C)C(CC(C)(C)O)C(=O)NC(C(C)C)C(=O)N(C)C(CC(C)C)C(=O)NC(C)C(=O)NC(C)C(=O)N(C)C(CC(C)C)C(=O)N(C)C(CC(C)C)C(=O)N(C)C(C(C)C)C(=O)N1C (stereo not shown) | 120 nM |
| C/C=C/C[C@@H](C)[C@@H](O)[C@H]1C(=O)N[C@@H](CC)C(=O)N(C)[C@H](COCCN(CC)CC)C(=O)N(C)[C@@H](CC(C)(C)OC)C(=O)N[C@@H](C(C)C)C(=O)N(C)[C@@H](CC(C)C)C(=O)N[C@@H](C)C(=O)N[C@H](C)C(=O)N(C)[C@@H](CC(C)C)C(=O)N(C)[C@@H](CC(C)C)C(=O)N(C)[C@@H](C(C)C)C(=O)N1C | 60 nM |
| C/C=C/C[C@@H](C)[C@@H](O)[C@H]1C(=O)N[C@@H](CC)C(=O)N(C)[C@H](COCCCN2CCCC2)C(=O)N(C)[C@@H](CC(C)(C)O)C(=O)N[C@@H](C(C)C)C(=O)N(C)[C@@H](CC(C)C)C(=O)N[C@@H](C)C(=O)N[C@H](C)C(=O)N(C)[C@@H](CC(C)C)C(=O)N(C)[C@@H](CC(C)C)C(=O)N(C)[C@@H](C(C)C)C(=O)N1C | 220 nM |
| CC=CCC(C)C(O)C1C(=O)NC(CC)C(=O)N(C)C(CSCCN(CC)C(C)C)C(=O)N(C)C(CC(C)(C)O)C(=O)NC(C(C)C)C(=O)N(C)C(CC(C)C)C(=O)NC(C)C(=O)NC(C)C(=O)N(C)C(CC(C)C)C(=O)N(C)C(CC(C)C)C(=O)N(C)C(C(C)C)C(=O)N1C (stereo not shown) | 70 nM |
| CC=CCC(C)C(O)C1C(=O)NC(CC)C(=O)N(C)C(CSCCN(CC)CC(C)(C)C)C(=O)N(C)C(CC(C)(C)O)C(=O)NC(C(C)C)C(=O)N(C)C(CC(C)C)C(=O)NC(C)C(=O)NC(C)C(=O)N(C)C(CC(C)C)C(=O)N(C)C(CC(C)C)C(=O)N(C)C(C(C)C)C(=O)N1C (stereo not shown) | 60 nM |
| CC=CCC(C)C(O)C1C(=O)NC(CC)C(=O)N(C)C(CSCCN(C)C(C)C)C(=O)N(C)C(CC(C)(C)O)C(=O)NC(C(C)C)C(=O)N(C)C(CC(C)C)C(=O)NC(C)C(=O)NC(C)C(=O)N(C)C(CC(C)C)C(=O)N(C)C(CC(C)C)C(=O)N(C)C(C(C)C)C(=O)N1C (stereo not shown) | 100 nM |
| CC=CCC(C)C(O)C1C(=O)NC(CC)C(=O)N(C)C(CSCCN(C)CC(C)(C)C)C(=O)N(C)C(CC(C)(C)O)C(=O)NC(C(C)C)C(=O)N(C)C(CC(C)C)C(=O)NC(C)C(=O)NC(C)C(=O)N(C)C(CC(C)C)C(=O)N(C)C(CC(C)C)C(=O)N(C)C(C(C)C)C(=O)N1C (stereo not shown) | 70 nM |
| CC=CCC(C)C(O)C1C(=O)NC(CC)C(=O)N(C)C(CSCCN2CCOCC2)C(=O)N(C)C(CC(C)(C)OC)C(=O)NC(C(C)C)C(=O)N(C)C(CC(C)C)C(=O)NC(C)C(=O)NC(C)C(=O)N(C)C(CC(C)C)C(=O)N(C)C(CC(C)C)C(=O)N(C)C(C(C)C)C(=O)N1C (stereo not shown) | 110 nM |
| CC=CCC(C)C(O)C1C(=O)NC(CC)C(=O)N(C)C(CSCCN2CCCC2)C(=O)N(C)C(CC(C)(C)OC)C(=O)NC(C(C)C)C(=O)N(C)C(CC(C)C)C(=O)NC(C)C(=O)NC(C)C(=O)N(C)C(CC(C)C)C(=O)N(C)C(CC(C)C)C(=O)N(C)C(C(C)C)C(=O)N1C (stereo not shown) | 90 nM |
| CC=CCC(C)C(O)C1C(=O)NC(CC)C(=O)N(C)C(CSCCN(CC)CC)C(=O)N(C)C(CC(C)(C)OC)C(=O)NC(C(C)C)C(=O)N(C)C(CC(C)C)C(=O)NC(C)C(=O)NC(C)C(=O)N(C)C(CC(C)C)C(=O)N(C)C(CC(C)C)C(=O)N(C)C(C(C)C)C(=O)N1C (stereo not shown) | 90 nM |
| CC=CCC(C)C(O)C1C(=O)NC(CC)C(=O)N(C)C(CSCCN(CC(C)C)CC(C)C)C(=O)N(C)C(CC(C)(C)O)C(=O)NC(C(C)C)C(=O)N(C)C(CC(C)C)C(=O)NC(C)C(=O)NC(C)C(=O)N(C)C(CC(C)C)C(=O)N(C)C(CC(C)C)C(=O)N(C)C(C(C)C)C(=O)N1C (stereo not shown) | 120 nM |
| CC=CCC(C)C(O)C1C(=O)NC(CC)C(=O)N(C)C(CSCCN(C)C)C(=O)N(C)C(CC(C)(C)OC)C(=O)NC(C(C)C)C(=O)N(C)C(CC(C)C)C(=O)NC(C)C(=O)NC(C)C(=O)N(C)C(CC(C)C)C(=O)N(C)C(CC(C)C)C(=O)N(C)C(C(C)C)C(=O)N1C (stereo not shown) | 100 nM |
| C/C=C/C[C@@H](C)[C@@H](O)[C@H]1C(=O)N[C@@H](CC)C(=O)N(C)[C@H](CSCCCN2CCN(C)CC2)C(=O)N(C)[C@@H](CC(C)(C)O)C(=O)N[C@@H](C(C)C)C(=O)N(C)[C@@H](CC(C)C)C(=O)N[C@@H](C)C(=O)N[C@H](C)C(=O)N(C)[C@@H](CC(C)C)C(=O)N(C)[C@@H](CC(C)C)C(=O)N(C)[C@@H](C(C)C)C(=O)N1C | 90 nM |
| CC=CCC(C)C(O)C1C(=O)NC(CC)C(=O)N(C)C(CSCCCN(CC)C(C)C)C(=O)N(C)C(CC(C)(C)O)C(=O)NC(C(C)C)C(=O)N(C)C(CC(C)C)C(=O)NC(C)C(=O)NC(C)C(=O)N(C)C(CC(C)C)C(=O)N(C)C(CC(C)C)C(=O)N(C)C(C(C)C)C(=O)N1C (stereo not shown) | 60 nM |
| C/C=C/C[C@@H](C)[C@@H](O)[C@H]1C(=O)N[C@@H](CC)C(=O)N(C)[C@H](CSCCCN2CCOCC2)C(=O)N(C)[C@@H](CC(C)(C)O)C(=O)N[C@@H](C(C)C)C(=O)N(C)[C@@H](CC(C)C)C(=O)N[C@@H](C)C(=O)N[C@H](C)C(=O)N(C)[C@@H](CC(C)C)C(=O)N(C)[C@@H](CC(C)C)C(=O)N(C)[C@@H](C(C)C)C(=O)N1C | 50 nM |
| C/C=C/C[C@@H](C)[C@@H](O)[C@H]1C(=O)N[C@@H](CC)C(=O)N(C)[C@H](CSCCCN(CC)CC)C(=O)N(C)[C@@H](CC(C)(C)O)C(=O)N[C@@H](C(C)C)C(=O)N(C)[C@@H](CC(C)C)C(=O)N[C@@H](C)C(=O)N[C@H](C)C(=O)N(C)[C@@H](CC(C)C)C(=O)N(C)[C@@H](CC(C)C)C(=O)N(C)[C@@H](C(C)C)C(=O)N1C | 80 nM |
| C/C=C/C[C@@H](C)[C@@H](O)[C@H]1C(=O)N[C@@H](CC)C(=O)N(C)[C@H](CSCCCN(CC)CC)C(=O)N(C)[C@@H](CC(C)(C)OC)C(=O)N[C@@H](C(C)C)C(=O)N(C)[C@@H](CC(C)C)C(=O)N[C@@H](C)C(=O)N[C@H](C)C(=O)N(C)[C@@H](CC(C)C)C(=O)N(C)[C@@H](CC(C)C)C(=O)N(C)[C@@H](C(C)C)C(=O)N1C | 70 nM |
| CC=CCC(C)C(O)C1C(=O)NC(CC)C(=O)N(C)C(CSCCCN(C)C)C(=O)N(C)C(CC(C)(C)OC)C(=O)NC(C(C)C)C(=O)N(C)C(CC(C)C)C(=O)NC(C)C(=O)NC(C)C(=O)N(C)C(CC(C)C)C(=O)N(C)C(CC(C)C)C(=O)N(C)C(C(C)C)C(=O)N1C (stereo not shown) | 90 nM |
| C/C=C/C[C@@H](C)[C@@H](O)[C@H]1C(=O)N[C@@H](CC)C(=O)N(C)[C@H](CSCCCN(C)C)C(=O)N(C)[C@@H](CC(C)(C)O)C(=O)N[C@@H](C(C)C)C(=O)N(C)[C@@H](CC(C)C)C(=O)N[C@@H](C)C(=O)N[C@H](C)C(=O)N(C)[C@@H](CC(C)C)C(=O)N(C)[C@@H](CC(C)C)C(=O)N(C)[C@@H](C(C)C)C(=O)N1C | 110 nM |

Same assay, conditions: Hepatitis C virus, Huh-7, HCV subgenomic replicon, cell line ET (luc-ubi-neo/ET) Huh7, luciferase end point; read-out: Antiviral activity EC50

| Compound | EC50 |
| --- | --- |
| C/C=C/C[C@@H](C)[C@@H](O)[C@H]1C(=O)N[C@@H](CC)C(=O)N(C)[C@H](CSCCNC(C)C)C(=O)N(C)[C@@H](CC(C)(C)O)C(=O)N[C@@H](C(C)C)C(=O)N(C)[C@@H](CC(C)C)C(=O)N[C@@H](C)C(=O)N[C@H](C)C(=O)N(C)[C@@H](CC(C)C)C(=O)N(C)[C@@H](CC(C)C)C(=O)N(C)[C@@H](C(C)C)C(=O)N1C | 190 nM |
| C/C=C/C[C@@H](C)[C@@H](O)[C@H]1C(=O)N[C@@H](CC)C(=O)N(C)[C@H](CSCCNCC(C)(C)C)C(=O)N(C)[C@@H](CC(C)(C)O)C(=O)N[C@@H](C(C)C)C(=O)N(C)[C@@H](CC(C)C)C(=O)N[C@@H](C)C(=O)N[C@H](C)C(=O)N(C)[C@@H](CC(C)C)C(=O)N(C)[C@@H](CC(C)C)C(=O)N(C)[C@@H](C(C)C)C(=O)N1C | 60 nM |

Same assay, conditions: Hepatitis C virus, Huh-7, Table 16, HCV replicon luciferase; read-out: Antiviral activity EC50

| Compound | EC50 |
| --- | --- |
| C/C=C/C[C@@H](C)[C@@H](O)[C@H]1C(=O)N[C@@H](CC)C(=O)N(C)[C@H](CSCCNCC(C)(C)C)C(=O)N(C)[C@@H](CC(C)(C)O)C(=O)N[C@@H](C(C)C)C(=O)N(C)[C@@H](CC(C)C)C(=O)N[C@@H](C)C(=O)N[C@H](C)C(=O)N(C)[C@@H](CC(C)C)C(=O)N(C)[C@@H](CC(C)C)C(=O)N(C)[C@@H](C(C)C)C(=O)N1C | 50 nM |

Same assay, conditions: Table 14, HCV replicon luciferase; read-out: Antiviral activity EC50

| Compound | EC50 |
| --- | --- |
| C/C=C/C[C@@H](C)[C@@H](O)[C@H]1C(=O)N[C@@H](CC)C(=O)N(C)[C@H](COCCCN2CCCC2)C(=O)N(C)[C@@H](CC(C)(C)O)C(=O)N[C@@H](C(C)C)C(=O)N(C)[C@@H](CC(C)C)C(=O)N[C@@H](C)C(=O)N[C@H](C)C(=O)N(C)[C@@H](CC(C)C)C(=O)N(C)[C@@H](CC(C)C)C(=O)N(C)[C@@H](C(C)C)C(=O)N1C | 120 nM |

Same assay, conditions: Table 16, HCV replicon luciferase; read-out: Antiviral activity EC50

| Compound | EC50 |
| --- | --- |
| C/C=C/C[C@@H](C)[C@@H](O)[C@H]1C(=O)N[C@@H](CC)C(=O)N(C)[C@H](CSCCCN2CCN(C)CC2)C(=O)N(C)[C@@H](CC(C)(C)O)C(=O)N[C@@H](C(C)C)C(=O)N(C)[C@@H](CC(C)C)C(=O)N[C@@H](C)C(=O)N[C@H](C)C(=O)N(C)[C@@H](CC(C)C)C(=O)N(C)[C@@H](CC(C)C)C(=O)N(C)[C@@H](C(C)C)C(=O)N1C | 40 nM |
| C/C=C/C[C@@H](C)[C@@H](O)[C@H]1C(=O)N[C@@H](CC)C(=O)N(C)[C@H](CSCCCN2CCOCC2)C(=O)N(C)[C@@H](CC(C)(C)O)C(=O)N[C@@H](C(C)C)C(=O)N(C)[C@@H](CC(C)C)C(=O)N[C@@H](C)C(=O)N[C@H](C)C(=O)N(C)[C@@H](CC(C)C)C(=O)N(C)[C@@H](CC(C)C)C(=O)N(C)[C@@H](C(C)C)C(=O)N1C | 40 nM |
